Data on one molecule can be found in ChEMBL document CHEMBL1152784, “Discovery of 4-substituted methoxybenzoyl-aryl-thiazole as novel anticancer agents: synthesis, biological evaluation, and structure-activity relationships” (J Med Chem, 2009).

As usually defined, the IC50 is the concentration at which inhibition is half-maximal. A higher IC50 goes with lower potency.

SMILES strings stand for the structures.

One test deals with DU-145. The test can be described thus: Cytotoxicity against human DU145 cells after 48 hrs by SRB assay. The format is functional, cell-based. The following applies: DU-145, 48 h. (The SRB assay estimates cell density from bound dye.)
For another test, the system named is LNCaP. Kind of test: Cytotoxicity against human LNCAP cells after 96 hrs by SRB assay. The following applies: Homo sapiens, LNCaP, 96 h.
Another test has as its system PC-3. Kind of test: Cytotoxicity against human PC3 cells after 96 hrs by SRB assay. The following applies: PC-3, 96 h.
The next test relates to A-375. The test can be described thus: Cytotoxicity against human A375 cells after 48 hrs by SRB assay. The following applies: A-375, 48 h. The format is functional, cell-based.
The next test deals with PPC-1. The test can be described thus: Cytotoxicity against human PPC1 cells after 96 hrs by SRB assay. The following applies: Homo sapiens, PPC-1, 96 h.
A short description of test [1]: Cytotoxicity against mouse B16-F1 cells after 48 hrs by SRB assay. Type of test: functional, cell-based. The following applies: B16-F1, 48 h.

On to `COc1ccc(-c2nc(C(=O)c3cc(OC)c(OC)c(OC)c3)cs2)cc1OC`, for which the half-inhibitory concentration (IC50) was found to be 102000 nM in the test on DU-145; 38 nM in the test with LNCaP; 69 nM with PC-3; 34 nM in the test on A-375; 56 nM in the test with PPC-1; 161 nM in test [1].
